Laboratory results reported in patent US20170176470A1, “DETECTION OF CARBOXYALKYLPYRROLE OR PENTYLPYRROLE ETHANOLAMINE PHOSPHOLIPIDS” (CASE WESTERN RESERVE UNIVERSITY, priority 2015, published 2017).

Columns and labels:
[1] = biological target: T1, recombinant mouse TLR2-Fc fusion protein (Mus musculus, UniProt Q9QUN7); assay: Competitive binding of CEP-PE vs CEP-HSA to recombinant mouse TLR2-Fc protein (ELISA); conditions: vesicles 0 to 125 μM; coated CEP-HSA; mTLR2-Fc 1 μg/ml
T1 construct: purchased R&D systems (Minneapolis, Minn.)
T1 sequence (Q9QUN7 with tags, fused parts or gaps limits assumed): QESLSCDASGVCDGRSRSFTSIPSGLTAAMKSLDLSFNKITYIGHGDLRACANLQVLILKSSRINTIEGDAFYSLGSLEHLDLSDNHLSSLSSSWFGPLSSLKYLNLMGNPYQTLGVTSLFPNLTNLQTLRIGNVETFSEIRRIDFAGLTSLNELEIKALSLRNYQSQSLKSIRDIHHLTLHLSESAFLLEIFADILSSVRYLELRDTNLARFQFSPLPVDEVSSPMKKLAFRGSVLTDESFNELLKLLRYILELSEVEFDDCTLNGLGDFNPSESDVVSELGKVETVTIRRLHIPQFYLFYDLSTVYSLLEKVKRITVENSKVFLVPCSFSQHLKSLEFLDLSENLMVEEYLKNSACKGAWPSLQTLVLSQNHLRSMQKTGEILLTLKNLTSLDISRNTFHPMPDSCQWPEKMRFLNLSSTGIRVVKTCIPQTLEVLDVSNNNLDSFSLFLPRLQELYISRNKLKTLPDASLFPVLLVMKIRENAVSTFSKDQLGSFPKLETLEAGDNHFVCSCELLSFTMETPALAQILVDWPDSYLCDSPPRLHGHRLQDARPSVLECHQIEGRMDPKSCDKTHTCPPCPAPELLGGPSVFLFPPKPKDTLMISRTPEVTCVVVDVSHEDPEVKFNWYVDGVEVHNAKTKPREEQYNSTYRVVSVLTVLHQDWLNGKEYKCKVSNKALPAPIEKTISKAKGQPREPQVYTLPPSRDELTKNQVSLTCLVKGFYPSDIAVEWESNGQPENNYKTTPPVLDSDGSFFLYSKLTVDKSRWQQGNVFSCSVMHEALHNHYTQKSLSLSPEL
Protocol: Small unilamellar vesicles of CEP-DPPE (125 μM) in phosphate buffered saline (PBS) were prepared by extruding (20 times) the hydrated phospholipids through a 0.1 μm polycarbonate filter using an Avanti Mini-Extruder (Avanti Polar Lipids, Inc., Alabaster, Ala.). The resulting solution was diluted to various concentrations by addition of PBS. To a 96-well ELISA plate, 100 μl of 5 μM CEP in CEP-HSA protein in PBS solution was added into each well and the plate was incubated at 37° C. for 1 h. PBS (100 μl) was used as control. Then the wells were washed with PBS and the non-binding sites on wells were blocked with 350 μL of 4% bovine serum albumin (BSA) in PBS buffer for 1 h at 37° C. blocking was completed, a mixture of recombine-ant mouse TLR2-Fc protein at a fixed concentration (1 μg/ml, in 1% BSA-PBS) with an equal volume of CEP-PE vesicles at concentrations from 0 to 125 μM was added to each well, and the plate was allowed to incubate for 1 h at 37° C. DPPE vesicle solutions at 0, 50, 75 and 120 μM concentration, prepared by sonication, were used as parallel samples. After washing the plate with PBS containing 0.1% Tween-20 (PBST) buffer, 100 μL of 1:2,000 diluted goat anti-human Fc antibody in PBST buffer was added to each well. […] After an additional 30 min incubation, the absorbance for each well was read at 405 nm with a microplate reader (Bio-Rad, Hercules, Calif.).

HUVECs = assay: HUVEC tube formation assay; type: cell-based, human
Protocol: For comparing the ability of various CEP-derivatives to promote tube formation (FIG. 2A) HUVECs were seeded on Matrigel-coated 48 well plates (BD Bioscience). The DMEM-F12 medium (Media lab, Cleveland Clinic, Cleveland, Ohio) was supplemented with various CEP-derivatives as indicated and incubated with cultured HUVECs at 37° C. for 8 h. Tube formation by HUVECs was observed using a phase contrast inverted microscope. Two independent assays were performed by two operators, one used PBS as control and the other used DPPE vesicles as control. The data were quantified either by measuring the length of tubes or by the number of branches. For testing the effects of oxPAPC, a TLR2 inhibitor, (FIG. 2C) or TLR2 knockdown (FIG. 2D) on the ability of CEP-PE to promote tube formation, growth factor-reduced (GFR) basement membrane extract (Cultrex BME, Trevigen, Gaithersburg, Md.; 175 μl/well) was added to the wells of an ice-cold 48-well plate and then incubated at 37° C. for 1 h to allow the gel to solidify. Overnight-starved, trypsin detached and extensively washed HUVECs (2.5×10^4 cells/well; Promocell, GmbH, Heidelberg, Germany) in a basal Growth Medium 2 (GM2; Promocell, GmbH) were seeded onto the BME coated wells. […] They were further thoroughly washed three times with GM2 basal medium, counted and seeded onto BME coated wells. […]

[2] = tested on: PLD from Streptomyces chromofuscus; assay: PLD-catalyzed hydrolysis of pyrrole-modified PEs, monitored by LC-MS; type: biochemical
Protocol: The isolated lipids were hydrolyzed with PLD (Streptomyces chromofuscus) by a modification of the method described previously for hydrolysis of isolevuglandin modified PEs. Lipids were re-suspended in 50 μL of methanol. Then 450 μL of HBSS buffer (Thermo Scientific, Waltham, Mass.) supplemented with 5 mM CaCl2 and 0.1 mM EDTA was added. The mixture was incubated at 37° C. for 30 min, and then was sonicated for 10 min. The cloudy lipid mixture was passed through a 0.1 μm polycarbonate filter (20 times) for extrusion using an Avanti Mini- Extruder Set (Avanti Polar Lipids, Inc., Alabaster, Ala.) to generate a homogeneous unilammelar lipid vesicle solution. Then 280 units of PLD (Streptomyces chromofuscus) were added to each sample. The mixture was incubated under argon with gentle shaking at 37° C. overnight. The next day the samples were evaporated to dryness under a stream of nitrogen for 2 h. […]
To verify CEP-PEs are substrates of PLD, CEP-DPPE and d4-CEP-PE standards were treated with PLD from Streptomyces chromofuscus. Then the generation of CEP-ETN and d4-CEPETN was monitored by LC-MS/MS, respectively. […]
Total phospholipids isolated from biological samples by a modified Bligh & Dyer method, were prepared for phospholipolysis by conversion into small unilamellar vesicles (SUVs) by extrusion. […] The resulting product mixture was then analyzed by injection into the LC-MS/MS. […]

| Compound | competition with CEP-HSA in binding with mTLR2-Fc protein [1] | ability to induce tube formation by HUVECs after knockdown of TLR2 by TLR2 siRNA (HUVECs; HUVECs with transient TLR2 knockdown, 1-500 nM CEP-DPPE, 12 h) | tube formation by HUVECs (HUVECs; cultured HUVECs on Matrigel, 8 h, 0.5 μM CEP-DPPE, PBS or DPPE as negative control) | release of CEP-ETN by PLD ([2]; control experiment, incubation for 1 h (data not shown)) | hydrolysis by PLD (Streptomyces chromofuscus) to the modified ethanolamine ([2]; standards treated with PLD, LC-MS/MS or LC-MS) |
| --- | --- | --- | --- | --- | --- |
| CCCCCCCCCCCCCCCC(=O)OC[C@H](COP(=O)(O)OCCN)OC(=O)CCCCCCCCCCCCCCC [DPPE, 1,2-Dipalmitoyl-sn-glycero-3-phosphoethanolamine, reference compound] | does not inhibit | – | – | – | – |
| CEP derivative of 1,2-dipalmitoyl-sn-glycero-3-phosphoethanolamine [CEP-DPPE] | compete with CEP-HSA | abolished | induces tube formation | quantitative release | readily hydrolyzed |
